The experiment relates to THP-1 viability, CellTiter-Glo luminescence, 72 h. The experiment can be described thus: human monocytic cell viability reduction – S. typhimurium screen hits, cytotoxicity control for Salmonella PhoP regulon inhibitors, dose response (AID 2253).

A word on the EC50: it is the concentration at which the effect is half-maximal. For the compound `COc1ccc(OCc2n(CC(=O)OC3CC(C)CCC3C(C)C)c3ccccc3[n+]2C)cc1` (configuration not stated), the 50% effective concentration (EC50) is 1.6 µM. Then `NC1=NC(=Nc2ccc(Cl)cc2)c2ccccc21`, with 22.4 µM; and `CCOC(=O)c1ccc(-c2ccc(C3Nc4ccccc4C(=O)N3O)o2)cc1` (configuration not stated), with 9.38 µM; and `Cc1nc([N+](=O)[O-])c(Br)n1CC(=O)c1ccccc1`, with 17.7 µM.

Turning to `C#CC(=O)N(c1cc(OC)ccc1OC)C(C(=O)NC1CCCC1)c1cccs1` (configuration not stated), the EC50 was 1.42 µM. In the case of `Oc1ccc(CNc2ccccc2F)c2cccnc12`, the EC50 is 4.93 µM. As to `CCN(CC)S(=O)(=O)c1cccc(C(=O)N/N=C/c2ccc(O)c(O)c2O)c1`, the EC50 was 6.68 µM. For the compound `CC(C(=O)Nc1cc([N+](=O)[O-])ccc1Cl)N1CCN(c2ccccc2O)CC1` (configuration not stated), the EC50 was 25.6 µM. For the compound `Cc1ccc(NC(=S)NC(NC(=O)c2ccco2)C(Cl)(Cl)Cl)cc1` (configuration not stated), the EC50 is 19.6 µM. In the case of `c1csc(C2Nc3cccc4cccc(c34)N2)c1` it was 48.8 µM; in that of `CC1(C)CC(=O)C2=C(C1)OC1=C(C(=O)CC(C)(C)C1)C2c1ccc(O)cc1O`, 5.36 µM.

In the case of `O=c1[nH]c(NNC(=S)NCc2ccccc2)nc2c1C1(CCCCC1)Cc1ccccc1-2`, the EC50 is 45.1 µM. In the case of `O=C(Nc1nnc(-c2cccs2)o1)c1cccc(Oc2ccccc2)c1` it was 19.6 µM. With `O=c1[nH]cc(F)c(=O)[nH]1`, the EC50 was 4.25 µM. In the case of `Cc1ccc(Nc2c3c(nc4ccccc24)CCC3)cc1` it was 12.2 µM; in that of `Cc1cccc(Nc2nc(NCc3ccco3)c3ccccc3n2)c1`, 5.29 µM. On to `C/C(=N\N=C(N)N)c1ccc(Cl)c(Cl)c1`, for which the EC50 was 11.2 µM. Then `CC1(C)SC(=S)N(NC(=O)Nc2ccccc2)C1N(O)C(=O)Nc1ccccc1` (configuration not stated), with 37.8 µM; and `C/C(CC(=O)Nc1ccc(Cl)c(C(F)(F)F)c1)=N\NC(=O)c1ccccc1O`, with 20.4 µM; and `O=C1C(Nc2ccccc2)=C/C(=N/S(=O)(=O)c2cccs2)c2ccccc21`, with 1.5 µM. In the case of `Cc1cc(C(=O)NNC(=S)NC(=O)/C=C/c2ccccc2Cl)n[nH]1` it was 23.6 µM; in that of `Cc1ccc(C(C)C)c(OCC(=O)N2CCN(Cc3nc4cc([N+](=O)[O-])ccc4n3C)CC2)c1`, 25.9 µM; in that of `CC(C)NC1=C(Cl)C(=O)c2ccccc2C1=O`, 18.9 µM. In the case of `Cc1ccc(C(=O)NNc2c3ccccc3nc3ccccc23)cc1` it was 27.5 µM. In the case of `CCn1c(N)[n+](CC(=O)Nc2ccc(SC(F)F)cc2)c2ccccc21`, the EC50 is 13.3 µM.

Take `Cc1ccc(-c2c[n+](CC(=O)Nc3nc(-c4ccc(F)cc4)cs3)c3n2CCC3)cc1`: the EC50 is 9.65 µM. In the case of `Clc1ccc(Cn2ncc3c(NCc4ccco4)ncnc32)c(Cl)c1` it was 6.81 µM; in that of `Cc1cc2cc(CCNC(=O)c3cccs3)c(=O)[nH]c2cc1C`, 17.2 µM. Consider `NCCc1c(-c2ccccc2)n(-c2ccccc2)c2ccccc12`, for which the EC50 was 4.76 µM. For the compound `CN(C)c1ccc(O)c2c1CC1CC3C(N(C)C)C(=O)C(C(N)=O)=C(O)[C@@]3(O)C(=O)C1=C2O` (some centres not stated), the concentration giving a half-maximal response (EC50) was 36.6 µM. In the case of `O=C(N/N=C/c1ccc([N+](=O)[O-])s1)C(O)c1ccccc1` (configuration not stated) it was 12.1 µM; in that of `Cc1ccsc1C=Nc1ccc(O)cc1`, 25.9 µM; in that of `Cc1cc(N/N=C/c2cccc(Cl)c2)nc(NCc2ccccc2)n1`, 23.5 µM. In the case of `CCc1ccc(-c2nn(-c3ccccc3)cc2CSC(=N)N)cc1` it was 6.52 µM. Then `COC(=O)c1ccc(Nc2cc(C)nc3ccccc23)cc1`, with 6.32 µM. On to `CCCCCCCCCCOC(=O)Cn1c(COc2cccc(C)c2)[n+](C)c2ccccc21`, for which the EC50 was 4.4 µM. As for `C#CCN1C(=O)C(O)(CC(=O)c2ccc(OC)c(OC)c2)c2ccccc21` (configuration not stated), the EC50 is 30.5 µM. For `COc1ccc2[nH]c3c(C)c4ccncc4c(C)c3c2c1`, the EC50 is 1.27 µM. In the case of `Cc1cc(C(=O)N/N=C/c2ccc(O)c(O)c2O)c(C)n1-c1ccccc1` it was 4.48 µM; in that of `COc1cccc(C2CC(=O)Nc3cc(OC)c(OC)c(OC)c32)c1OC` (configuration not stated), 46.2 µM; in that of `Cc1ccc(C(C[N+](=O)[O-])c2c(C)cc3ccccn23)cc1` (configuration not stated), 15.4 µM. For the compound `Oc1cccc2ccc[n+](CC(O)Cn3c4ccccc4c4ccccc43)c12` (configuration not stated), the EC50 is 11.1 µM.

In the case of `C#CCOCCOCCOCCNc1nc(N2CCN(C(=O)CCCCCCCCCCNC(=O)[C@H]([C@@H](C)CC)n3cc(CCCCN=C(N)N)nn3)CC2)nc(N2CCN(C(=O)CCCCCCCCCCNC(=O)[C@H]([C@@H](C)CC)n3cc(CCCCN=C(N)N)nn3)CC2)n1`, the EC50 was 4.39 µM. Then `Oc1c(C(Nc2cccc(C(F)(F)F)c2)c2cccnc2)ccc2cccnc12` (configuration not stated), with 7.65 µM; and `C#CCOCCOCCOCCNc1nc(N2CCN(C(=O)CCCCCCCCCCNC(=O)[C@H](CCCCN)n3cc(C[C@@H](C)CC)nn3)CC2)nc(N2CCN(C(=O)CCCCCCCCCCNC(=O)[C@H](CCCN=C(N)N)n3cc(C[C@@H](C)CC)nn3)CC2)n1`, with 3.88 µM. On to `C=COC(=O)CSc1snc(SCC(=O)OC)c1C#N`, for which the EC50 is 32.3 µM.

With `CCN1/C(=C/C(C)=C/c2sc3ccccc3[n+]2CC)Sc2ccccc21`, the EC50 was 13.6 µM. Then `Cc1[nH]n(-c2ccccc2)c(=O)c1/C=N/Nc1nncc(-c2ccccc2)n1`, with 0.57 µM; and `Cc1ccc(/C=C/C(=O)c2ccccc(=O)c2O)cc1C`, with 17.2 µM; and `O=[N+]([O-])c1cc(Cl)c(O)c2ncccc12`, with 15 µM. `Cc1ccc(Nc2cc(C)nn2-c2nc(C)cc(=O)[nH]2)cc1`: the EC50 was 0.62 µM. Then `Cc1nn(-c2ccccc2)c(C)c1/C=N/NC(=O)c1cc(-c2cccc3ccccc23)n[nH]1`, with 17.4 µM; and `Oc1ccc(/C=N/Nc2nccnc2Cl)c(O)c1`, with 1.39 µM; and `O=C(N/N=C/c1cc([N+](=O)[O-])ccc1O)C1CC1`, with 26 µM. In the case of `O=C(c1ccc(F)cc1)C(CN1CCOCC1)c1ccccc1` (configuration not stated) it was 6.92 µM; in that of `O=C(CN1CCCC1)N/N=C/c1c(O)ccc2ccccc12`, 3.43 µM. In the case of `C=CCc1cccc(C2Nc3ccccc3C(=O)N2O)c1O` (configuration not stated) it was 43.1 µM. As to `c1ccc2c(NC3=NCCS3)cccc2c1`, the half-maximal effective concentration (EC50) was 31.8 µM.

Take `C#CCOCCOCCOCCNc1nc(N2CCN(C(=O)CCCCCCCCCCNC(=O)[C@H]([C@@H](C)CC)n3cc(CCCCN=C(N)N)nn3)CC2)nc(N2CCN(C(=O)CCCCCCCCCCNC(=O)[C@H](CCCN=C(N)N)n3cc(C[C@@H](C)CC)nn3)CC2)n1`: the EC50 was 3.57 µM.

`CC1CCC(C(C)C)C(OC(=O)Cn2c(-c3ccc(Cl)cc3)[n+](C)c3ccccc32)C1` (configuration not stated): the EC50 was 2.13 µM. In the case of `O=C(NNc1c2ccccc2nc2ccccc12)c1ccccc1O` it was 28.3 µM; in that of `Nc1nc2ccccc2n1CCOc1ccccc1Cl`, 12.8 µM. In the case of `CCCCCCCCCCCCCCCCn1cc[n+](CC(C)=O)c1` it was 0.8 µM. Then `CCCOc1ccc(C(=O)C(CCC(CNCC)C(=O)c2ccc(OCCC)cc2)CNCC)cc1` (configuration not stated), with 1.58 µM; and `CCCC(=O)NC(c1cccs1)c1cc([N+](=O)[O-])c2cccnc2c1O` (configuration not stated), with 7.09 µM; and `Nc1c(Cl)ncnc1N/N=C/c1ccccn1`, with 0.47 µM. As for `Cc1ccc(-c2cc(C(=O)Nc3nccs3)c3ccccc3n2)o1`, the EC50 was 31.7 µM. Then `CCCCCCCCCCOC(=O)Cn1c(COc2ccccc2)[n+](C)c2ccccc21`, with 8.34 µM; and `CN1CCN(C(c2ccc(C(F)(F)F)cc2)c2cc(Cl)c3cccnc3c2O)CC1` (configuration not stated), with 2.96 µM; and `O=C(CSc1ccccn1)N/N=C/c1cc([N+](=O)[O-])ccc1O`, with 17.1 µM. With `O=[N+]([O-])c1cc(F)c2cccnc2c1O`, the concentration giving a half-maximal response (EC50) is 30.5 µM. In the case of `O=C(NC(=S)NNC(=O)c1ccccc1O)c1ccco1` it was 14.6 µM. In the case of `Cc1ccc(C(=O)CSC2=C(C#N)C(c3ccco3)CC(=O)N2)c(C)c1` (configuration not stated) it was 33.7 µM. Turning to `O=C(Nc1cccc(Cl)c1)Nc1ccc2c(c1)OCO2`, the EC50 is 36.8 µM.

For the compound `c1ccc2c(c1)ncn2CCCCOc1ccc2c(c1)CCC2`, the EC50 was 15 µM. In the case of `Cc1cc(C(C)(C)CC(C)(C)C)ccc1OCCOCC[N+](C)(C)Cc1ccccc1` it was 1.61 µM. Consider `Cc1cccc(Nc2cc(C)c3c(O)cccc3n2)c1C`, for which the EC50 was 8.98 µM. Turning to `O=[N+]([O-])c1ccc(O)c(/C=N/Nc2ccccn2)c1`, the EC50 is 0.42 µM. Then `NC1=NC(=Nc2ccc(Br)cc2)c2ccccc21`, with 25.8 µM; and `O=C(c1ccccc1)C(CN1CCCC1)c1ccccc1` (configuration not stated), with 5.56 µM. In the case of `COc1ccc2c(c1)nc(N)n2Cc1ccccc1` it was 46.3 µM; in that of `Cc1ccc(C(=O)O)cc1N=Cc1cc(Br)cc(Br)c1O`, 37.2 µM. In the case of `O=C1c2cccc(OCC(=O)N3N=C(c4cccs4)CC3c3ccc(F)cc3)c2CCN1Cc1cccnc1` (configuration not stated), the EC50 is 47.9 µM. Then `COc1ccc(NC2=NC3(CCCCC3)N=C(N)N2)cc1`, with 35.1 µM. Turning to `COc1cccc(Cn2cnc3c(NS(=O)(=O)c4cccc(Cl)c4Cl)c(C)c(C)cc32)c1`, the EC50 was 40.4 µM. For the compound `O=C(N/N=C/c1ccc(O)cc1O)/C(=C/c1ccccc1)CCO`, the EC50 is 4.05 µM. As for `Cc1ccc(S(=O)(=O)/N=C2/C=C(Sc3ncn[nH]3)C(=O)c3ccccc32)cc1`, the EC50 is 2.13 µM. Turning to `O=C(NNc1c2ccccc2nc2ccccc12)c1cccc(O)c1`, the EC50 was 23.2 µM. Consider `Cc1ccc(C(=O)N/N=C/c2ccc([N+](=O)[O-])s2)cc1`, for which the EC50 is 12.3 µM. Then `CCCCCCCCCn1c2c(c(=N)c3c1CCC3)CCCC2`, with 0.37 µM; and `Cc1ccc(S(=O)(=O)Nc2cc(Cl)c(O)c3ncccc23)cc1`, with 1.55 µM. As for `Cc1ccc(Nc2nc(N)c3ccccc3n2)cc1Cl`, the concentration giving a half-maximal response (EC50) is 16.3 µM. Then `CCN1/C(=C/C=C/C=C/c2sc3ccccc3[n+]2CC)Sc2ccccc21`, with 4.62 µM; and `Cn1c(=N)n(CC(=O)c2ccc(Br)s2)c2ccccc21`, with 10.1 µM; and `O=C(N/N=C/c1c[nH]c2ccccc12)c1cc(-c2cccc3ccccc23)n[nH]1`, with 13.8 µM. As for `COc1ccc(CCNC(=S)Nc2cccc3ccccc23)cc1`, the EC50 was 31.5 µM. As for `CC[n+]1c(/C=C/C=C/c2ccc(N(C)C)cc2)sc2ccccc21`, the EC50 is 1.5 µM.

(Values after PubChem BioAssay AID2253 (Southern Research Specialized Biocontainment Screening …, 2010).)
